The target in experiment [1] is 72 kDa type IV collagenase (Homo sapiens, UniProt P08253). Briefly: Inhibition of Matrix metalloprotease-2.
Another experiment concerns the target Stromelysin-1 (Homo sapiens, UniProt P08254). Put plainly: Inhibition of Matrix metalloprotease-3.
The next experiment deals with T1, Interstitial collagenase (Homo sapiens, UniProt P03956).
T1 sequence (P03956 whole entry): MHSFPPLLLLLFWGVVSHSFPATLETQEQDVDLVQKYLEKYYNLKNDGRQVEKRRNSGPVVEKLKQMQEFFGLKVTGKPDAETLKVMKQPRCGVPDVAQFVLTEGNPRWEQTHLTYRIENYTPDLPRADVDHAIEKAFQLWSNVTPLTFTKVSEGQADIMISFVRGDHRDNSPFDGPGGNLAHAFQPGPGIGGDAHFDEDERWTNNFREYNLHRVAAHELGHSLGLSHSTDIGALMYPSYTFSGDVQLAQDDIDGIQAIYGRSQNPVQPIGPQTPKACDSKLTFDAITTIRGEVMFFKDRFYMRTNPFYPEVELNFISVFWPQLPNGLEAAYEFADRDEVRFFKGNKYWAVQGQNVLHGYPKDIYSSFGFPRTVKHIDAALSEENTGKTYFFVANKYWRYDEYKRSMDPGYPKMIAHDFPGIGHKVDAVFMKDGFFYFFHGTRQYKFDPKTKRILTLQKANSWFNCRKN
Briefly: Inhibition of human Matrix metalloprotease-1.

For a further experiment, the target named is Neprilysin (Homo sapiens, UniProt P08473). Briefly: The compound was evaluated in vitro for the inhibition of Neutral endopeptidase.
Sequence of Neprilysin (P08473 whole entry): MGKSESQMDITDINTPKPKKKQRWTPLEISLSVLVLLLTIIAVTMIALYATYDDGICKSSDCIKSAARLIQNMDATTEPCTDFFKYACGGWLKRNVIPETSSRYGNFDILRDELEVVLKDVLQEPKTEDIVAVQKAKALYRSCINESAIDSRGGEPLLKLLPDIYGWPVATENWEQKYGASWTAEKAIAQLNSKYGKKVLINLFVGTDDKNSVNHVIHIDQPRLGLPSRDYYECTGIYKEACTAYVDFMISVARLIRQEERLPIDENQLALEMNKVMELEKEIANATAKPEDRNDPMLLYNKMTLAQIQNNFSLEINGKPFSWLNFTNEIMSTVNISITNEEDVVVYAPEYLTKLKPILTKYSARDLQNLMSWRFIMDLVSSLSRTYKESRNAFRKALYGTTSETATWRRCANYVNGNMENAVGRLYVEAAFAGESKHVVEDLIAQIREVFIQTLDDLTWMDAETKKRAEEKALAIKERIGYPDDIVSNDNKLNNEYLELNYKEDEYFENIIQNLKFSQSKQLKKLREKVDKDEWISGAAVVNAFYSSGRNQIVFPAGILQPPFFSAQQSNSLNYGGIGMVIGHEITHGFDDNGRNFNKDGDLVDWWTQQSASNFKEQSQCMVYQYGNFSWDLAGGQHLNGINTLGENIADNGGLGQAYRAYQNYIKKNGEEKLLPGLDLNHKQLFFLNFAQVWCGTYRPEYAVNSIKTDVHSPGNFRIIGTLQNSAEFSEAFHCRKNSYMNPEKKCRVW
In experiment [2] the target is T2, Matrilysin (Homo sapiens) (UniProt P09237).
T2 sequence (whole entry): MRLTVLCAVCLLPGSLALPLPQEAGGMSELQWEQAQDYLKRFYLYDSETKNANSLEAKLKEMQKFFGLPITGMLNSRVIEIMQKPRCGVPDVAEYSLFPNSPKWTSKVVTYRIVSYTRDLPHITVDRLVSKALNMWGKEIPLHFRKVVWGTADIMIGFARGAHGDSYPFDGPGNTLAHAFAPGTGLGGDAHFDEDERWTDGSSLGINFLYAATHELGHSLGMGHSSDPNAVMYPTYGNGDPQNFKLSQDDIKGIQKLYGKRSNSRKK
Put plainly: (§1) Inhibition of Matrix metalloprotease-7. To be noted: concentration not given here.

For experiment [3], the target named is Angiotensin-converting enzyme (Homo sapiens, UniProt P12821). Briefly: Compound was tested for its inhibitory activity against Angiotensin I converting enzyme.
Sequence of Angiotensin-converting enzyme (P12821 whole entry): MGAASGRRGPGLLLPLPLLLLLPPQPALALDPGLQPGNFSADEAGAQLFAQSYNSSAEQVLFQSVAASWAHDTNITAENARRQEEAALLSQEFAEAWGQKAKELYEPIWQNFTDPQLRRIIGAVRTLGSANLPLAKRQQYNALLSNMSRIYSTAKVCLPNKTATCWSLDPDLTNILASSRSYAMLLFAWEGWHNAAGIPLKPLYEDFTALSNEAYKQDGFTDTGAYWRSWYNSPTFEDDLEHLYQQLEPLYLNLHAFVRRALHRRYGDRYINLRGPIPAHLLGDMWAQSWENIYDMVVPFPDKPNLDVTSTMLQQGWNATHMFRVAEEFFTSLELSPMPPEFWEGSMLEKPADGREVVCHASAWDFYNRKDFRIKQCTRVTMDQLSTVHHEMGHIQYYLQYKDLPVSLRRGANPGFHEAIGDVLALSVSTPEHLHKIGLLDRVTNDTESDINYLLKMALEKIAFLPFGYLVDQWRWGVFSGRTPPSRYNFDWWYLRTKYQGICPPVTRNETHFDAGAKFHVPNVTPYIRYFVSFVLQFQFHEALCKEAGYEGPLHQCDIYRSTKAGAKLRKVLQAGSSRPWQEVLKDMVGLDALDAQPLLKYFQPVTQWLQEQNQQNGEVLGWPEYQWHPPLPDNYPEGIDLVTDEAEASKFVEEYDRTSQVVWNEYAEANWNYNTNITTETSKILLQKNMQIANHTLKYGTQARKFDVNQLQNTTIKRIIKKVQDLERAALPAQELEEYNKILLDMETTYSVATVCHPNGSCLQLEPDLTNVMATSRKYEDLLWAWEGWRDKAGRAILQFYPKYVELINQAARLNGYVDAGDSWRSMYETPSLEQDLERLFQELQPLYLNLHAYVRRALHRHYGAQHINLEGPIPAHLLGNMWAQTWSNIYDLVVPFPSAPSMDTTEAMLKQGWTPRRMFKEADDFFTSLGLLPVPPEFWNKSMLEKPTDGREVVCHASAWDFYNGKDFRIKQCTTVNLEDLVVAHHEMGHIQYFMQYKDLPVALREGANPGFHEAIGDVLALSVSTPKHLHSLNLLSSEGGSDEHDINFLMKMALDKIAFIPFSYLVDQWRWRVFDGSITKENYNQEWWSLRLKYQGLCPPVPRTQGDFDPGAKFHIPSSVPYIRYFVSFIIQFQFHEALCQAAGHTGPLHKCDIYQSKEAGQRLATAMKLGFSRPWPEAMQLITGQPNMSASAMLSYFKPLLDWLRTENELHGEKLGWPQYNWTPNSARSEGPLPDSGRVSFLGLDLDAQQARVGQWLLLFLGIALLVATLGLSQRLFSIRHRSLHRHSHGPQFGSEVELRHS
A further experiment addresses T3, Matrilysin (Homo sapiens, UniProt P09237).
T3 sequence (P09237 whole entry): T2 sequence (whole entry)
The description is as §1.

Sequence of Stromelysin-1 (P08254 whole entry): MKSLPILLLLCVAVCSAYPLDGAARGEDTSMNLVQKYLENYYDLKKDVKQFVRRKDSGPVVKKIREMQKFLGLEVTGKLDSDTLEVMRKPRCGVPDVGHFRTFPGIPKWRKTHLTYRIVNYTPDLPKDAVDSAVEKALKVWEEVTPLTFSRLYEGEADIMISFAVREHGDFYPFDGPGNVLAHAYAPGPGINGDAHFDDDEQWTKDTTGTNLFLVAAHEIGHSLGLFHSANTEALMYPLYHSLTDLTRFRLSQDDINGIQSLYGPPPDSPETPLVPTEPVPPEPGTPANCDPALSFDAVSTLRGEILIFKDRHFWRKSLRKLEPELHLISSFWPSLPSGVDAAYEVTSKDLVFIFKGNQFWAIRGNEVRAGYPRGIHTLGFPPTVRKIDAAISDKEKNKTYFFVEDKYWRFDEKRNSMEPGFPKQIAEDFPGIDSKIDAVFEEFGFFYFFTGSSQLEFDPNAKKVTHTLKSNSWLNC
Sequence of 72 kDa type IV collagenase (P08253 whole entry): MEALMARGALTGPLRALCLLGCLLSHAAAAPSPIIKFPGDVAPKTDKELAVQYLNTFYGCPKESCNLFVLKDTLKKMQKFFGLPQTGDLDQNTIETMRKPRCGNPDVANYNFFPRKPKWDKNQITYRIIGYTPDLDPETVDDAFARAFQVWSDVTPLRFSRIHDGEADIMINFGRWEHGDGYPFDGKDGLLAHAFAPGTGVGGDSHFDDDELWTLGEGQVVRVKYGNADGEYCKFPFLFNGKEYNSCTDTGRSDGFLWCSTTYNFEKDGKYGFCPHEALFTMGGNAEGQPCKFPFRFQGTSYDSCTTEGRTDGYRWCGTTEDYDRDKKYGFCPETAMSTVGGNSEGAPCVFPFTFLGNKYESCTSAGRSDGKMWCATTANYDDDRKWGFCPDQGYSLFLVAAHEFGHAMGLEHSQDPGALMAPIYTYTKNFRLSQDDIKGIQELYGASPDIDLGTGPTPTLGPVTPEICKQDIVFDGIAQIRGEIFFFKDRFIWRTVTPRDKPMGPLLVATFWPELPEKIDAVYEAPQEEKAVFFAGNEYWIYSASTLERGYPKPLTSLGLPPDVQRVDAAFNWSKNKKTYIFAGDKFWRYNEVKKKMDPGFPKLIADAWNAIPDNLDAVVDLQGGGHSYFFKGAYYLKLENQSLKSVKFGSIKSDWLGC

Take `CCCCC[C@H](CC(=O)NO)C(=O)N[C@H](C(=O)N1CCC[C@H]1CO)C(C)C` [ACTINONIN]: the IC50 (commonly the concentration that gives 50% inhibition) in experiment [1] is 3 µM; against Stromelysin-1, 6 µM; against Interstitial collagenase it was 1.1 µM; on Neprilysin, 6.7 µM; in experiment [3], > 100 µM. Further, the inhibition (commonly how much of the control response was suppressed) in experiment [2] amounted to 60%.

Take `CCCC[C@H](CN(O)C=O)C(=O)N[C@H](C(=O)N(C)C)C(C)(C)C`: the IC50 is 15 µM in experiment [1]; > 100 µM against Matrilysin; > 100 µM against Stromelysin-1; 2 µM at Interstitial collagenase; 50 µM against Neprilysin; > 100 µM in experiment [3].

Take `CCCCC(CN(O)C=O)C(=O)N[C@H](C(=O)N(C)C)C(C)(C)C` (stereo partly specified): the IC50 (in experiment [1]; against Matrilysin; against Stromelysin-1; on Interstitial collagenase) was > 100 µM throughout.

Values taken from ChEMBL document CHEMBL1133973, “Asymmetric synthesis of BB-3497--a potent peptide deformylase inhibitor” (Bioorg Med Chem Lett, 2001).
